# Assay results from BindingDB's records for doi:10.7270/Q2C53J9J (University of Pittsburgh, 2010).
# Target: T1, Glucose-6-phosphate 1-dehydrogenase (Leuconostoc mesenteroides, UniProt P11411)
# T1 sequence (P11411 whole entry): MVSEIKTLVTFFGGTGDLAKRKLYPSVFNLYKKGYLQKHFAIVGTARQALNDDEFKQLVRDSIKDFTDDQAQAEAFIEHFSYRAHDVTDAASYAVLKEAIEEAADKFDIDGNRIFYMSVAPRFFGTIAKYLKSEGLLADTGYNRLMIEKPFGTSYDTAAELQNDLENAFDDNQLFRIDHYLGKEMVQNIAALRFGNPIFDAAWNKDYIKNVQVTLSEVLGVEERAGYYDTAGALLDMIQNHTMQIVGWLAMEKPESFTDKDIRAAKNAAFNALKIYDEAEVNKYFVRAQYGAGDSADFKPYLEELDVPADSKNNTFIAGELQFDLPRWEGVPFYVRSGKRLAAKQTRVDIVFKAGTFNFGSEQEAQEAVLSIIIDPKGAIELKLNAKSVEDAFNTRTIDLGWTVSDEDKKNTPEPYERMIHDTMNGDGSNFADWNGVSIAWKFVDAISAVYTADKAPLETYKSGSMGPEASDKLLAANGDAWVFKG
# Assay: Leuconostoc G6PDH inhibition potency, SAR follow-up, counter-screen for TbHK1 inhibitor project, biochemical, analogue series, IC50 (AID 2579)
row,Structure (SMILES),IC50 [µM]
1,"N#Cc1ccc2c(=O)n(-c3ccccc3)sc2c1 [3-oxidanylidene-2-phenyl-1,2-benzothiazole-6-carbonitrile]",> 25
2,CCc1ccc(C(=O)Nc2cc(Cl)ccc2C(=O)O)cc1 [KSC-6-279],> 25
3,O=c1c2cc(N3CCOCC3)ccc2sn1-c1ccccc1,> 25
4,"O=c1c2ccc(F)cc2sn1Cc1ccccc1 [6-fluoro-2-(phenylmethyl)-1,2-benzothiazol-3-one]",> 25
5,O=C(O)c1ccccc1NC(=O)c1ccccc1C(=O)O,> 25
6,"O=C(Cn1sc2ccccc2c1=O)Nc1ccccc1Cl [N-(2-chlorophenyl)-2-(3-oxidanylidene-1,2-benzothiazol-2-yl)ethanamide]",> 25
7,O=C(Nc1cc(Cl)ccc1C(=O)O)c1ccoc1 [4-chloranyl-2-(furan-3-ylcarbonylamino)benzoic acid],> 25
8,"O=c1c2cc(F)ccc2sn1-c1ccccc1 [5-fluoranyl-2-phenyl-1,2-benzothiazol-3-one]",> 25
9,O=C(Cn1sc2ccccc2c1=O)Nc1ccccc1F [KSC-09-149A],> 25
10,COc1ccccc1-n1sc2ccccc2c1=O [KUC103854N],> 25
11,COc1ccc(C(=O)NC(CC(=O)O)c2ccccc2)cc1 (configuration not stated) [sodium;3-[(4-methoxybenzoyl)amino]-3-phenylpropanoate],> 25
12,O=c1c2ccccc2sn1-c1ccc(Cl)cc1Cl [KUC103882N],> 25
13,O=C(Cn1sc2ccccc2c1=O)NC1CCCCC1,> 25
14,Cc1cccc(C(=O)Nc2cc(Cl)ccc2C(=O)O)c1 [4-chloro-2-[[(3-methylphenyl)-oxomethyl]amino]benzoic acid],> 25
15,COc1ccc(C(=O)Nc2cc(F)ccc2C(=O)O)cc1 [KSC-6-276],> 25
16,"Cc1ccc(-n2sc3ccccc3c2=O)cc1 [2-(4-methylphenyl)-1,2-benzisothiazol-3(2H)-one]",> 25
17,CC(C)(C)c1ccc(C(=O)Nc2cc(Cl)ccc2C(=O)O)cc1 [KSC-18-037],> 25
18,CN(C)c1ccc(C(=O)Nc2cc(Cl)ccc2C(=O)O)cc1 [KUC105997N],> 25
19,COc1ccc(C(=O)Nc2cc(I)ccc2C(=O)O)cc1 [4-iodanyl-2-[(4-methoxyphenyl)carbonylamino]benzoic acid],> 25
20,CCCc1ccc(C(=O)Nc2cc(Cl)ccc2C(=O)O)cc1,> 25
21,COc1ccc(CC(=O)Nc2cc(Cl)ccc2C(=O)O)cc1 [KUC105993N],> 25

row,Structure (SMILES),IC50 [µM]
1,COc1ccc2sn(-c3ccccc3)c(=O)c2c1 [KSC-09-048],> 25
2,Cc1ccc(C(=O)Nc2cc(Cl)ccc2C(=O)O)cc1 [4-chloro-2-[(4-methylbenzoyl)amino]benzoic acid],> 25
3,CCCCCCC(=O)Nc1cc(Cl)ccc1C(=O)O [4-chloro-2-(1-oxoheptylamino)benzoic acid],> 25
4,O=C(Nc1ccccc1)n1sc2ccccc2c1=O [KUC105339N],> 25
5,COc1cccc(CC(=O)Nc2cc(Cl)ccc2C(=O)O)c1 [4-chloro-2-[[2-(3-methoxyphenyl)-1-oxoethyl]amino]benzoic acid],> 25
6,CCOC(=O)Cn1sc2ccccc2c1=O [KUC104555N],> 25
7,O=C(Cn1sc2ccccc2c1=O)NCc1ccccc1,> 25
8,COc1ccc(C(=O)NC(CC(=O)O)c2cccc(Cl)c2)cc1 (configuration not stated) [3-(3-chlorophenyl)-3-[(4-methoxybenzoyl)amino]propanoic acid],> 25
9,COc1ccc(C(=O)Nc2cc(Cl)ccc2S(N)(=O)=O)cc1,> 25
10,O=c1s[nH]c2ccccc12 [KUC103850N],> 25
11,"O=c1c2ccc([N+](=O)[O-])cc2sn1-c1ccccc1 [6-nitro-2-phenyl-1,2-benzothiazol-3-one]",> 25
12,COc1ccc(C(=O)Nc2cnccc2C(=O)O)cc1 [3-[(4-methoxybenzoyl)amino]pyridine-4-carboxylic acid],> 25
13,N#Cc1ccccc1NC(=O)Cn1sc2ccccc2c1=O,> 25
14,CN(C)c1ccc(NC(=O)Cn2sc3ccccc3c2=O)cc1 [KSC-09-127C],> 25
15,O=c1cc(-c2ccccc2)sn1-c1ccccc1,> 25
16,O=C(Cn1sc2ccccc2c1=O)Nc1ccccc1Br,> 25
17,O=C(O)c1ccc(Cl)cc1NC(=O)c1coc2ccccc12 [2-[[3-benzofuranyl(oxo)methyl]amino]-4-chlorobenzoic acid],> 25
18,O=c1c2ccccc2sn1-c1ccccc1Cl,> 25
19,COC(=O)c1ccc(Cl)cc1NC(=O)c1ccc(Cl)cc1,> 25
20,O=C(Nc1cc(Cl)ccc1C(=O)O)c1ccc(-c2ccccc2)cc1 [4-chloranyl-2-[(4-phenylphenyl)carbonylamino]benzoic acid],> 25
21,O=c1c2cc(F)ccc2sn1-c1ccccc1Cl,> 25

row,Structure (SMILES),IC50 [µM]
1,O=c1c2cc(Br)ccc2[s+]([O-])n1-c1ccccc1 (configuration not stated),> 25
2,Cc1ccc(C(=O)Nc2cc(Cl)ccc2C(=O)O)cc1C [KUC106495N],> 25
3,COC(=O)c1ccc(Cl)cc1NC(=O)c1ccccc1OC [4-chloro-2-[[(2-methoxyphenyl)-oxomethyl]amino]benzoic acid methyl ester],> 25
4,"O=c1c2cccnc2sn1-c1ccccc1 [2-(Phenyl)-isothiazolo[5,4-b]pyridin-3(2H)-one]",> 25
5,"O=C(Cn1sc2ccccc2c1=O)Nc1ccc(Br)cc1 [N-(4-bromophenyl)-2-(3-oxo-1,2-benzothiazol-2-yl)acetamide]",> 25
6,COc1cc(C(=O)Nc2cc(Cl)ccc2C(=O)O)cc(OC)c1OC,> 25
7,"O=C(Cn1sc2ccccc2c1=O)Nc1ccccc1I [N-(2-iodanylphenyl)-2-(3-oxidanylidene-1,2-benzothiazol-2-yl)ethanamide]",> 25
8,COc1ccc(C(=O)NCC(=O)O)cc1,> 25
9,Cc1ccc(NC(=O)Cn2sc3ccccc3c2=O)cc1 [KUC104219N],> 25
10,COc1cccc(C(=O)Nc2cc(Cl)ccc2C(=O)O)c1,> 25
11,COc1ccc(C(=O)Nc2cc(-c3ccccc3)ccc2C(=O)O)cc1,> 25
12,O=C(Cn1sc2ccccc2c1=O)N1CCOCC1 [KUC105406N],> 25
13,"Cc1ccccc1-n1sc2cc(F)ccc2c1=O [6-fluoranyl-2-(2-methylphenyl)-1,2-benzothiazol-3-one]",> 25
14,"Cc1ccc(-n2sc3cc(F)ccc3c2=O)c(C)c1 [2-(2,4-dimethylphenyl)-6-fluoranyl-1,2-benzothiazol-3-one]",> 25
15,COc1ccc(C(=O)Nc2cc(C(=O)O)ccc2Cl)cc1 [4-chloro-3-[(4-methoxybenzoyl)amino]benzoic acid],> 25
16,COc1ccc(NC(=O)c2ccccc2C(=O)O)cc1 [KSC-6-244],> 25
17,O=C(Nc1cc(Cl)ccc1C(=O)O)c1ccc(C(F)(F)F)cc1 [4-chloranyl-2-[[4-(trifluoromethyl)phenyl]carbonylamino]benzoic acid],> 25
18,O=C(Cn1sc2ccccc2c1=O)Nc1ccccc1C(F)(F)F [KUC105610N],> 25
19,COC(=O)c1ccc(Cl)cc1NS(=O)(=O)c1ccc(OC)cc1,> 25
20,COc1ccc(Nc2cc(Cl)ccc2C(=O)O)cc1 [4-chloro-2-(4-methoxyanilino)benzoic acid],> 25
21,COc1ccc(C(=O)Nc2cc(OC)ccc2C(=O)O)cc1 [KUC105624N],> 25

row,Structure (SMILES),IC50 [µM]
1,"O=C(Cn1sc2ccccc2c1=O)Nc1ccc(Cl)cc1 [N-(4-chlorophenyl)-2-(3-oxidanylidene-1,2-benzothiazol-2-yl)ethanamide]",> 25
2,CC(=O)Nc1ccc2c(=O)n(-c3ccccc3)sc2c1 [KUC104218N],> 25
3,COc1ccc(NC(=O)Nc2ccccc2C(=O)O)cc1 [KUC105625N],> 25
4,"COc1ccccc1NC(=O)Cn1sc2ccccc2c1=O [N-(2-methoxyphenyl)-2-(3-oxidanylidene-1,2-benzothiazol-2-yl)ethanamide]",> 25
5,N#Cc1ccc2sn(-c3ccccc3)c(=O)c2c1 [KUC104224N],> 25
6,O=C(c1ccccc1)n1sc2ccccc2c1=O [KUC105344N],> 25
7,"O=c1c2ccccc2sn1-c1ccc(Cl)cc1 [2-(4-chlorophenyl)-1,2-benzothiazol-3-one]",> 25
8,O=C(Nc1cc(Cl)ccc1C(=O)O)c1ccc2c(c1)CCC2 [KUC106492N],> 25
9,CCc1ccc(C(=O)Nc2cc(Cl)ccc2C(=O)OC)cc1 [4-chloro-2-[[(4-ethylphenyl)-oxomethyl]amino]benzoic acid methyl ester],> 25
10,O=C(Nc1cc(Cl)ccc1C(=O)O)c1ccc(C2CC2)cc1 [KUC106496N],> 25
11,COc1ccc(-c2cc3ccccc3[nH]2)cc1 [KUC105790N],> 25
12,O=c1c2cc(C(F)(F)F)ccc2sn1-c1ccccc1 [KSC-09-037],> 25
13,"O=C(CCn1sc2ccccc2c1=O)Nc1ccccc1 [3-(3-oxidanylidene-1,2-benzothiazol-2-yl)-N-phenyl-propanamide]",> 25
14,O=c1c(Br)csn1-c1ccc(Br)cc1 [4-bromo-2-(4-bromophenyl)-3-isothiazolone],> 25
15,COc1ccccc1C(=O)Nc1cc(Cl)ccc1C(=O)O,> 25
16,O=c1c2ccc(Br)cc2sn1-c1ccccc1,> 25
17,O=c1c2ccccc2sn1-c1cccc(F)c1 [KUC103653N],> 25
18,CCOc1ccc(C(=O)Nc2cc(Cl)ccc2C(=O)O)cc1 [4-chloro-2-[[(4-ethoxyphenyl)-oxomethyl]amino]benzoic acid],> 25
19,COc1ccc(C(=O)Nc2ccccc2C(=O)O)cc1Cl,> 25
